Key:
Experiment in all cases: relative viability (nuclei count vs DMSO), 5 days (fraction); higher = more cells survive
[1] = system: LCLC-103H
Method in brief: (§1)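 One day after seeding in 1536-well plates, lung cancer cell lines were dosed by pin tool. Dosing was either single-drug or a fixed anchor-drug dose plus five library-drug doses (not always all listed) in √10 steps. After 5 days, nuclei were stained in one fix-and-stain step and counted on 4× images, and relative viability is the nuclei count of treated wells over that of vehicle wells, given as the median of duplicate plates.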

[2] = system: NCI-H358
Method in brief: as §1

[3] = system: NCI-H2347
Method in brief: as §1

[4] = system: LU99A
Method in brief: as §1

[5] = system: NCI-H520
Method in brief: as §1

[6] = system: ABC-1
Method in brief: as §1

[7] = system: NCI-H2126
Method in brief: as §1

[8] = system: ChaGo-K-1
Method in brief: as §1

[9] = system: NCI-H1944
Method in brief: as §1

[10] = system: NCI-H1395
Method in brief: as §1

[11] = system: NCI-H322M
Method in brief: as §1

[12] = system: SK-LU-1
Method in brief: as §1

[13] = system: RERF-LC-KJ
Method in brief: as §1

[14] = system: NCI-H1755
Method in brief: as §1

[15] = system: HCC-827
Method in brief: as §1

[16] = system: NCI-H1666
Method in brief: as §1

[17] = system: NCI-H1793
Method in brief: as §1

[18] = system: CAL-12T
Method in brief: as §1

[19] = system: LXF-289
Method in brief: as §1

[20] = system: NCI-H3122
Method in brief: as §1

[21] = system: HCC-44
Method in brief: as §1

Cc1csc(=NC2CCCCC2)n1/N=C/c1ccc(O)c(O)c1O [MIM1] + Cc1cc(Nc2cc(N3CCN(C)CC3)nc(Sc3ccc(NC(=O)C4CC4)cc3)n2)n[nH]1 [Tozasertib] (partner 0.1 µM)
relative viability ([1]; first compound 0.2 µM): 0.609 | relative viability ([1]; first compound 0.6325 µM): 0.426 | relative viability ([1]; first compound 2 µM): 0.505 | relative viability ([1]; first compound 6.325 µM): 0.41 | relative viability ([1]; first compound 20 µM): 0.268 | relative viability ([2]; first compound 0.2 µM): 0.106 | relative viability ([2]; first compound 0.6325 µM): 0.0936 | relative viability ([2]; first compound 2 µM): 0.129 | relative viability ([2]; first compound 6.325 µM): 0.0878 | relative viability ([2]; first compound 20 µM): 0.0838 | relative viability ([3]; first compound 0.2 µM): 0.478 | relative viability ([3]; first compound 0.6325 µM): 0.51 | relative viability ([3]; first compound 2 µM): 0.497 | relative viability ([3]; first compound 6.325 µM): 0.473 | relative viability ([3]; first compound 20 µM): 0.369 | relative viability ([4]; first compound 0.2 µM): 0.286 | relative viability ([4]; first compound 0.6325 µM): 0.274 | relative viability ([4]; first compound 2 µM): 0.288 | relative viability ([4]; first compound 6.325 µM): 0.219 | relative viability ([4]; first compound 20 µM): 0.177 | relative viability ([5]; first compound 0.2 µM): 0.55 | relative viability ([5]; first compound 0.6325 µM): 0.419 | relative viability ([5]; first compound 2 µM): 0.463 | relative viability ([5]; first compound 6.325 µM): 0.428 | relative viability ([5]; first compound 20 µM): 0.375 | relative viability ([6]; first compound 0.2 µM): 0.228 | relative viability ([6]; first compound 0.6325 µM): 0.182 | relative viability ([6]; first compound 2 µM): 0.21 | relative viability ([6]; first compound 6.325 µM): 0.206 | relative viability ([6]; first compound 20 µM): 0.194 | relative viability ([7]; first compound 0.2 µM): 0.831 | relative viability ([7]; first compound 0.6325 µM): 0.832 | relative viability ([7]; first compound 2 µM): 0.846 | relative viability ([7]; first compound 6.325 µM): 0.738 | relative viability ([7]; first compound 20 µM): 0.403 | relative viability ([8]; first compound 0.2 µM): 0.246 | relative viability ([8]; first compound 0.6325 µM): 0.232 | relative viability ([8]; first compound 2 µM): 0.204 | relative viability ([8]; first compound 6.325 µM): 0.196 | relative viability ([8]; first compound 20 µM): 0.155 | relative viability ([9]; first compound 0.2 µM): 0.226 | relative viability ([9]; first compound 0.6325 µM): 0.288 | relative viability ([9]; first compound 2 µM): 0.235 | relative viability ([9]; first compound 6.325 µM): 0.231 | relative viability ([9]; first compound 20 µM): 0.143 | relative viability ([10]; first compound 0.2 µM): 0.742 | relative viability ([10]; first compound 0.6325 µM): 0.791 | relative viability ([10]; first compound 2 µM): 0.784 | relative viability ([10]; first compound 6.325 µM): 0.68 | relative viability ([10]; first compound 20 µM): 0.374 | relative viability ([11]; first compound 0.2 µM): 0.497 | relative viability ([11]; first compound 0.6325 µM): 0.456 | relative viability ([11]; first compound 2 µM): 0.513 | relative viability ([11]; first compound 6.325 µM): 0.447 | relative viability ([11]; first compound 20 µM): 0.26 | relative viability ([12]; first compound 0.2 µM): 0.329 | relative viability ([12]; first compound 0.6325 µM): 0.374 | relative viability ([12]; first compound 2 µM): 0.393 | relative viability ([12]; first compound 6.325 µM): 0.273 | relative viability ([12]; first compound 20 µM): 0.283 | relative viability ([13]; first compound 0.2 µM): 0.507 | relative viability ([13]; first compound 0.6325 µM): 0.503 | relative viability ([13]; first compound 2 µM): 0.317 | relative viability ([13]; first compound 6.325 µM): 0.231 | relative viability ([13]; first compound 20 µM): 0.224 | relative viability ([14]; first compound 0.2 µM): 0.606 | relative viability ([14]; first compound 0.6325 µM): 0.629 | relative viability ([14]; first compound 2 µM): 0.563 | relative viability ([14]; first compound 6.325 µM): 0.477 | relative viability ([14]; first compound 20 µM): 0.266 | relative viability ([15]; first compound 0.2 µM): 0.43 | relative viability ([15]; first compound 0.6325 µM): 0.404 | relative viability ([15]; first compound 2 µM): 0.411 | relative viability ([15]; first compound 6.325 µM): 0.169 | relative viability ([15]; first compound 20 µM): 0.177 | relative viability ([16]; first compound 0.2 µM): 0.618 | relative viability ([16]; first compound 0.6325 µM): 0.625 | relative viability ([16]; first compound 2 µM): 0.575 | relative viability ([16]; first compound 6.325 µM): 0.47 | relative viability ([16]; first compound 20 µM): 0.446 | relative viability ([17]; first compound 0.2 µM): 0.405 | relative viability ([17]; first compound 2 µM): 0.435 | relative viability ([17]; first compound 6.325 µM): 0.298 | relative viability ([17]; first compound 20 µM): 0.34 | relative viability ([18]; first compound 0.2 µM): 0.244 | relative viability ([18]; first compound 0.6325 µM): 0.254 | relative viability ([18]; first compound 2 µM): 0.303 | relative viability ([18]; first compound 6.325 µM): 0.206 | relative viability ([18]; first compound 20 µM): 0.204 | relative viability ([19]; first compound 0.2 µM): 0.167 | relative viability ([19]; first compound 0.6325 µM): 0.217 | relative viability ([19]; first compound 2 µM): 0.198 | relative viability ([19]; first compound 6.325 µM): 0.181 | relative viability ([19]; first compound 20 µM): 0.117 | relative viability ([20]; first compound 0.2 µM): 0.446 | relative viability ([20]; first compound 0.6325 µM): 0.464 | relative viability ([20]; first compound 2 µM): 0.366 | relative viability ([20]; first compound 6.325 µM): 0.155 | relative viability ([20]; first compound 20 µM): 0.0965 | relative viability ([21]; first compound 0.2 µM): 0.962 | relative viability ([21]; first compound 0.6325 µM): 1.1 | relative viability ([21]; first compound 2 µM): 0.387 | relative viability ([21]; first compound 6.325 µM): 0.584 | relative viability ([21]; first compound 20 µM): 0.184

From the supplement of paper PMC10307832
